“Also recorded” adds a separate entry of the source.
Experiments:
[1] = tested on: live CHO cells expressing R218K luciferase; experiment: Intact cell FAAH assay, light emission from live CHO cells expressing R218K luciferase; format: cell-based, Chinese hamster
Description: (§1) Chinese hamster ovary-K1 (CHO-K1) cells were grown in a CO2 incubator at 37° C. with 5% CO2 and were cultured in F-12K Nutrient Mixture (GIBCO) supplemented with 10% fetal bovine serum and 100 U/mL penicillin/streptomycin.
(§2) Wild-type and R218K mutant luciferases were cloned into the BamHI-NotI site of pCDNA 3.1 and transiently transfected into CHO-K1 cells with Lipofectamine 2000 in 96-well tissue culture-treated plates for intact cell assays, or 6-well plates for lysed cell assays. For intact cells, 0.075 μg plasmid/well was transfected; for lysed cells, 2.25 μg plasmid/well was transfected.
[…] The cells were incubated for one hour in the CO2 incubator at 37° C. Cells were then washed with Hank's balanced salt solution (HBSS) and overlaid with 60 μL a luciferin amide substrate in HBSS. Imaging assays were performed 3 minutes after substrate addition, with final substrate concentrations ranging from 0.122 to 250 μM.
Seven luciferin amides, i.e., Compounds 1-4, 9, 10, and 25, were tested in live CHO cells expressing R218K luciferase at various concentrations (i.e., 0.12 μM, 0.25 μM, 0.5 μM, 1 μM, 2 μM, 4 μM, 8 μM, 16 μM, 31 μM, 62 μM, 125 μM, and 250 μM).
(§3) Compound 25 and Compound 10, as well as their corresponding luciferins (i.e., D-Luciferin and CycLuc2, respectively), were tested in live CHO cells expressing wild-type (WT) luciferase or R218K (RK) luciferase at various concentrations (i.e., 0.125 μM, 0.25 μM, 0.5 μM, 1 μM, 2 μM, 4 μM, 8 μM, 16 μM, 31 μM, 62 μM, 125 μM, and 250 μM).

[2] = target: T1, FAAH (Homo sapiens, UniProt O00519); experiment: In vitro FAAH assay: luciferin amide treated with recombinant FAAH, then R218K luciferase, bioluminescence; format: biochemical; conditions: 50 μM luciferin amide, 10 minutes at room temperature, R218K luciferase 3 μg/mL
T1 construct: purchased Cayman Chemical
T1 sequence (O00519 1-579): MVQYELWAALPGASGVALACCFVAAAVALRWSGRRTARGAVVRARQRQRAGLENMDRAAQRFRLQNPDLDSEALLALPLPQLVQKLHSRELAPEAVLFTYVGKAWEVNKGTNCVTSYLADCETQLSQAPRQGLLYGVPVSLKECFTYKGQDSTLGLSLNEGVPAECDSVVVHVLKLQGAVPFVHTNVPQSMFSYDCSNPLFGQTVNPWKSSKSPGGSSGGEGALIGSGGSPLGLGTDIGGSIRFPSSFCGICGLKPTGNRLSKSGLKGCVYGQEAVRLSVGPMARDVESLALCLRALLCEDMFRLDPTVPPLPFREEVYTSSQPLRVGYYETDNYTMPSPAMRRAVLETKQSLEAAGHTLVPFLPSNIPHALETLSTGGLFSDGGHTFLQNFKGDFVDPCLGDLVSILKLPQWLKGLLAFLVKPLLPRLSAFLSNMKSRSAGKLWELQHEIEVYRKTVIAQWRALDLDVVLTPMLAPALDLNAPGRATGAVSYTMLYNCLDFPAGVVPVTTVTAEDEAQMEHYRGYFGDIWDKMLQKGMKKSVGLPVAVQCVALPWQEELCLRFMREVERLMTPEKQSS
Description: Recombinant FAAH, FAAH assay buffer, and FAAH inhibitors URB-597, PF-750, and PF-3845 were purchased from Cayman Chemical.
Bioluminescence assays were performed in either a Turner Veritas luminometer or a Xenogen IVIS-100 imaging system. For Veritas experiments, white 96-well plates were used (Costar 3912). For IVIS experiments, black 96-well plates were used (Costar 3915).
Luciferin amides (50 μM) were treated with FAAH and FAAH buffer (Cayman Chemical) in the presence or absence of 50 μM FAAH inhibitor URB-597 or 50 μM luciferase inhibitor 2-(4′-methoxyphenyl)benzothiazole. After 10 minutes at room temperature, R218K mutant firefly luciferase was added at a concentration of 3 μg/mL and bioluminescence was detected on a Turner Veritas luminometer.
Four luciferin amides (50 μM), i.e., Compounds 1, 9, 10, and 25, were treated with a buffer alone, a buffer containing FAAH, a buffer containing FAAH+50 μM URB-597 (i.e., a FAAH inhibitor), or a buffer containing FAAH+50 μM luciferase inhibitor 2-(4′-methoxyphenyl)benzothiazole. After 10 minutes at room temperature, R218K luciferase was added at a concentration of 3 μg/mL and bioluminescence was detected on a Turner Veritas.
Three luciferin amides (50 μM), i.e., Compounds 2, 9, and 25, were treated with a buffer alone, a buffer containing FAAH, a buffer containing FAAH 1:10 (i.e., a ten-fold dilution of FAAH), a buffer containing pig liver esterase (PLE), or a buffer containing PLE 1:10 (i.e., a ten-fold dilution of PLE). After one hour at room temperature, R218K luciferase was added at a concentration of 3 μg/mL and bioluminescence was detected on a Turner Veritas.

[3] = tested on: live CHO cells expressing wild-type (WT) luciferase; experiment: Intact cell FAAH assay, light emission from live CHO cells expressing wild-type luciferase; format: cell-based, Chinese hamster; conditions: all concentration levels
Description: as §1, §2
Medium was removed from transfected CHO cells and replaced with 60 μL Optimem with or without a FAAH inhibitor (10 μM). The cells were incubated for one hour in the CO2 incubator at 37° C. Cells were then washed with Hank's balanced salt solution (HBSS) and overlaid with 60 μL a luciferin amide substrate in HBSS. Imaging assays were performed 3 minutes after substrate addition, with final substrate concentrations ranging from 0.122 to 250 μM.
as §3

[4] = tested on: FVB mice expressing luciferase in brain tissue; experiment: In vivo bioluminescence imaging in brains of FVB mice injected with AAV9-luc+ in the striatum; conditions: doses 200-fold and 1000-fold lower than standard D-luciferin dose
Description: FVB mice were injected with AAV9-luc+ in the brain striatum. Bioluminescence assays were performed approximately nine months after AAV injection. Each luciferin amide was diluted into PBS to the indicated concentration from a 50 mM DMSO stock solution and filtered (0.22 μm) prior to intraperitoneally injection (0.1 mL per mouse). Mice were anesthetized with isoflurane (2% in 1 L/min oxygen) and images acquired on a Xenogen IVIS 100 imaging system and analyzed with Living Image software.
Certain luciferin amides described herein were tested to determine whether they would image well in live mice. For these studies, FVB mice were injected with adeno-associated virus 9 (AAV9)-luciferase constructs into the brain striatum.
Bioluminescence imaging (BLI) in the brain is more challenging than imaging in the rest of the organism, in part because a luciferase substrate (i.e., a luciferin) must cross the blood-brain barrier. Therefore, the ability of a synthetic luciferin (i.e., Compound 9's corresponding luciferin (CycLuc1)) to allow bioluminescence imaging in these mice, as compared to the native firefly luciferase substrate (i.e., D-luciferin) was first tested. Specifically, each substrate was injected intraperitoneally (IP) in PBS at a volume of 0.1 mL, D-luciferin being at a concentration of 100 mM and CycLuc1 being at a concentration of 5 mM. […] CycLuc1 was then injected at a 320-fold lower dose (0.06 mL of 0.5 mM) than D-luciferin.
Specifically, Compound 9 (i.e., CycLuc1 amide) was injected at 0.5 mM in 0.5% DMSO/PBS (0.06 mL).
In this figure, mice in the top row were treated with luciferin amides in the amounts indicated in the figure, and the mice in the bottom row were the same mice that were imaged one day later using a standard dose of D-luciferin.

SMILES: CN1CCc2cc3nc(C4=N[C@@H](C(N)=O)CS4)sc3cc21 [Compound 10, (S)-4,5-dihydro-2-(6,7-dihydro-5-methyl-5H-thiazolo[4,5-f]indol-2-yl)thiazole-4-carboxamide]
- effect of FAAH inhibitors URB-597, PF-750 and PF-3845 on light output ([1]; 50 μM FAAH inhibitor): complete inhibition
- light emission relative to the corresponding luciferin (CycLuc2) ([1]; all concentrations tested, 0.12 to 250 μM): greater light emission than its corresponding luciferin; also recorded: greater light output than cells treated with Compound 10's corresponding luciferin
- light output relative to other substrate-luciferase combinations ([1]; concentrations above 30 μM): only exceeded by cells expressing the wild-type luciferase and treated with D-luciferin
- light emission relative to other substrate-luciferase combinations ([1]; substrate concentrations below 30 μM): higher light emission than all other substrate-luciferase combinations
- increase in bioluminescence signal on addition of FAAH versus buffer [2]: 139 fold
- light output relative to the corresponding luciferin (CycLuc2) [3]: greater light output than cells treated with Compound 10's corresponding luciferin
- bioluminescence signal higher than standard D-luciferin imaging conditions [4]: 10 fold

Source: patent US9814787B2, “Luciferin amides” (University of Massachusetts, priority 2013, dated 2017)
